According to US5362634A, “Process for producing A83543 compounds” (DowElanco, priority 1991, dated 1994):

Tests used:
adult stable fly (ASF) = experiment: Sheep systemic test, adult stable fly; format: in vivo; conditions: Stomoxys calcitrans, 24 h
Method: (§1) Blood is drawn from the guinea pigs at 30 minutes except as noted, and the samples of blood are centrifuged. Dental wicks are saturated with the blood serum, and then exposed in Petri dishes to adult stable flies; blow fly larvae are exposed in test tubes. After 24 and 48 hours, the insects are examined, and the number of dead are counted. The results of the tests are recorded as the percent of the insects which are killed.
Tests are carried out in sheep using the test method described supra in the Guinea Pig Test description. Test compound is administered by intraperitoneal or intravenous injection or intraruminally; blood samples are drawn at 24 hours in these tests.

blow fly larvae (LBF) = experiment: Guinea pig systemic test, blow fly larvae; format: in vivo
Method: Adult guinea pigs are used in this test system. The compounds to be tested are dissolved in aqueous polyvinyl pyrrolidone or in polyethylene glycol 200, and an appropriate amount of the solution is administered either orally or by intraperitoneal injection.
as §1

[1] = tested on: mixture of soybean loopers (75%) and fall armyworm (25%); experiment: Field trial, soybean loopers and fall armyworm on soybean; format: in vivo
Method: (§2) A83543A was evaluated in field trials.

Haemonchus contortus = experiment: In vitro test against sheep intestinal nematode; conditions: read-out: worms killed
Excerpt: In in vitro tests against the sheep intestinal nematode Haemonchus contortus, A83543A killed 30% of the worms at a concentration of 100 ppm.

[2] = Anthelmintic activity in sheep; format: in vivo
[3] = tested on: neonate CBW (cotton bollworm) larvae; experiment: Surface-treated diet test against neonate CBW larvae; format: in vivo, Heliothis zea
Method: (§3) Each test compound was formulated by dissolving the compound in an acetone/alcohol (1:1) mixture containing 23 g of "Toximul R" (sulfonate/nonionic emulsifier blend) and 13 g of "Toximul S" (sulfonate/nonionic emulsifier blend) per liter. These mixtures were then diluted with water to give the indicated concentrations.
(§4) Additional insects were evaluated using similar formulations and evaluation procedures, with the exceptions noted.
(§5) After standard exposure periods, percent mortality was evaluated. The following abbreviations are used:
(§6) ^b Mean of two replicates tested
^d Diet is surface treated with A83543A, allowed to dry and infested

[4] = tested on: CBW (cotton bollworm) ova; experiment: Topical treatment of CBW eggs (ova); format: in vivo, Heliothis zea; conditions: 144 h, 6 days
Method: as §3, §4, §5, §6
^e Eggs topically treated with A83543A and held until control eggs

[5] = tested on: SAW (Southern armyworm) larvae; experiment: Foliar/bushbean test against SAW larvae; format: in vivo; conditions: Spodoptera eridania, foliar; for inhibition at 0.5 ppm: 0.50 ppm
Method: as §3
[…] Other plants in the same treatment pot were left uninfested. The leaves were then sprayed with 5 mL of test solution using a DeVilbiss atomizing sprayer at 10 psi. Both surfaces of the leaves were covered until runoff and then allowed to dry for one hour. Two uninfested leaves were then excised and placed into a Petri dish containing Southern armyworm (Spodoptera eridania Cramer).
as §4, §5
^a Days between treatment and observation
^b Mean of replicates tested

imported cabbage worm = experiment: Field trial, imported cabbage worm on sprouting broccoli; format: in vivo
Method: as §2

Nematospiroides dubius = experiment: Anthelmintic activity in mice experimentally infected with Nematospiroides dubius; format: in vivo; conditions: single oral gavage at 500 mg/kg
[6] = tested on: CRW (Southern corn rootworm); experiment: Greenhouse test against CRW; format: in vivo, Diabrotica undecimpunctata howardi
Method: as §3, §4
After standard exposure periods, percent mortality was evaluated.

Spodoptera eridania = experiment: Outdoor pot tests against Southern armyworm; format: in vivo
Excerpt: Table XV compares the effectiveness and persistence of A83543A treatment with that of methomyl in outdoor pot tests against Southern armyworm.

CC[C@H]1CCC[C@H](O[C@H]2CC[C@H](N(C)C)[C@@H](C)O2)[C@@H](C)C(=O)C2=C[C@@H]3[C@@H](C=C[C@@H]4C[C@@H](O[C@@H]5O[C@@H](C)[C@H](OC)[C@@H](OC)[C@H]5OC)C[C@@H]34)[C@@H]2CC(=O)O1 [A83543A]
10%: mortality at 1 mg/kg (adult stable fly (ASF); 1.0 mg/kg IV) | inhibition at 1 ppm ([5]; 72 h, neonate, 3 days) | inhibition at 7.5 ppm ([6]; 7.5 ppm)
100%: LBF activity (% mortality) (blow fly larvae (LBF); 50 mg/kg IP, 30 min) | % Activity LBF (blow fly larvae (LBF); 50 mg/kg IP, bled 30 min) | LBF activity (% mortality) (blow fly larvae (LBF); 50 mg/kg OR (oral), 30 min) | % Activity LBF (blow fly larvae (LBF); 50 mg/kg oral, bled 5 hr) | inhibition at 5 ppm ([3]; 72 h, 3 days) | inhibition at 10 ppm ([3]; 72 h, 3 days) | inhibition at 50 ppm ([3]; 72 h, 3 days) | inhibition at 5 ppm ([3]; 96 h, 4 days) | inhibition at 10 ppm ([3]; 96 h, 4 days) | inhibition at 50 ppm ([3]; 96 h, 4 days) | inhibition at 100 ppm ([3]; 96 h, 4 days, 100.00 ppm) | inhibition at 10 ppm ([5]; 72 h, neonate, 3 days) | inhibition at 50 ppm ([5]; 72 h, neonate, 3 days) | inhibition at 100 ppm ([5]; 72 h, neonate, 3 days) | inhibition at 5 ppm ([5]; 96 h, neonate, 4 days) | inhibition at 10 ppm ([5]; 96 h, neonate, 4 days) | inhibition at 50 ppm ([5]; 96 h, neonate, 4 days) | inhibition at 100 ppm ([5]; 96 h, second instar, 4 days) | inhibition at 10 ppm ([5]; 96 h, third instar, 4 days) | inhibition at 50 ppm ([5]; 96 h, third instar, 4 days) | inhibition at 30 ppm ([6]; 30 ppm) | mortality at 63 ppm (Spodoptera eridania; 24 h, 1 day after treatment) | mortality at 125 ppm (Spodoptera eridania; 24 h, 1 day after treatment) | mortality at 250 ppm (Spodoptera eridania; 24 h, 1 day after treatment) | mortality at 500 ppm (Spodoptera eridania; 24 h, 1 day after treatment) | mortality at 500 ppm (Spodoptera eridania; 120 h, 5 days after treatment) | mortality at 250 ppm (Spodoptera eridania; 168 h, 7 days after treatment) | mortality at 500 ppm (Spodoptera eridania; 168 h, 7 days after treatment) | mortality at 250 ppm (Spodoptera eridania; 336 h, 14 days after treatment) | mortality at 500 ppm (Spodoptera eridania; 336 h, 14 days after treatment)
88%: mortality at 63 ppm (Spodoptera eridania; 120 h, 5 days after treatment) | mortality at 125 ppm (Spodoptera eridania; 120 h, 5 days after treatment)
95%: % Activity LBF (blow fly larvae (LBF); 50 mg/kg IP, bled 5 hr) | mortality at 250 ppm (Spodoptera eridania; 120 h, 5 days after treatment) | mortality at 125 ppm (Spodoptera eridania; 168 h, 7 days after treatment)
50%: % Activity LBF (blow fly larvae (LBF); 30 mg/kg IP, bled 5 hr) | inhibition at 15 ppm ([6]; 15 ppm)
66.7%: inhibition at 1 ppm ([5]; 96 h, neonate, 4 days)
40%: inhibition at 5 ppm ([5]; 72 h, neonate, 3 days) | inhibition at 5 ppm ([5]; 96 h, third instar, 4 days)
0%: mortality at 10 mg/kg (adult stable fly (ASF); 10 mg/kg IP) | mortality at 10 mg/kg (adult stable fly (ASF); 10 mg/kg IR) | mortality at 30 mg/kg (adult stable fly (ASF); 30 mg/kg IP) | LBF activity (% mortality) (blow fly larvae (LBF); 10 mg/kg IP, 30 min) | % Activity LBF (blow fly larvae (LBF); 10 mg/kg IP, bled 30 min) | % Activity LBF (blow fly larvae (LBF); 10 mg/kg IP, bled 5 hr) | % Activity LBF (blow fly larvae (LBF); 10 mg/kg IP, bled 24 hr) | LBF activity (% mortality) (blow fly larvae (LBF); 20 mg/kg IP, 30 min) | % Activity LBF (blow fly larvae (LBF); 20 mg/kg IP, bled 30 min) | % Activity LBF (blow fly larvae (LBF); 20 mg/kg IP, bled 5 hr) | % Activity LBF (blow fly larvae (LBF); 20 mg/kg IP, bled 24 hr) | % Activity LBF (blow fly larvae (LBF); 50 mg/kg oral, bled 24 hr) | inhibition at 10 ppm ([4]; 10.00 ppm) | inhibition at 50 ppm ([4]; 50.00 ppm) | inhibition at 10 ppm ([5]; 96 h, fifth instar, 4 days) | inhibition at 50 ppm ([5]; 96 h, fifth instar, 4 days) | inhibition at 0.5 ppm ([5]; 96 h, neonate, 4 days) | inhibition at 1 ppm ([5]; 96 h, second instar, 4 days) | inhibition at 5 ppm ([5]; 96 h, second instar, 4 days) | inhibition at 0.5 ppm ([5]; 96 h, third instar, 4 days) | inhibition at 1 ppm ([5]; 96 h, third instar, 4 days) | inhibition at 3 ppm ([6]; 3 ppm, second series) | inhibition at 3.75 ppm ([6]; 3.75 ppm)
70%: mortality at 50 mg/kg (adult stable fly (ASF); 50 mg/kg IR)
45%: inhibition at 1 ppm ([3]; 72 h, 3 days)
90%: mortality at 25 mg/kg (adult stable fly (ASF); 2 × 25 mg/kg IR) | LBF activity (% mortality) (blow fly larvae (LBF); 30 mg/kg IP) | % Activity LBF (blow fly larvae (LBF); 30 mg/kg IP, bled 30 min) | mortality at 63 ppm (Spodoptera eridania; 168 h, 7 days after treatment) | mortality at 125 ppm (Spodoptera eridania; 336 h, 14 days after treatment)
showed activity: activity in field trials [1] | activity in field trials (imported cabbage worm)
did not show anthelmintic activity: anthelmintic activity ([2]; single intraperitoneal dose of 50 mg/kg) | anthelmintic activity ([2]; single intraruminal dose of 50 mg/kg) | anthelmintic activity (Nematospiroides dubius)
30%: mortality at 30 mg/kg (adult stable fly (ASF); 30 mg/kg IR) | % Activity LBF (blow fly larvae (LBF); 30 mg/kg IP, bled 24 hr) | killing at 100 ppm (Haemonchus contortus) | inhibition at 1 ppm ([3]; 96 h, 4 days) | inhibition at 100 ppm ([4]; 100.00 ppm) | inhibition at 6 ppm ([6]; 6 ppm, second series)
5%: mortality at 63 ppm (Spodoptera eridania; 336 h, 14 days after treatment)
80%: inhibition at 10 ppm ([5]; 96 h, second instar, 4 days) | inhibition at 50 ppm ([5]; 96 h, second instar, 4 days)
15%: inhibition at 0.5 ppm ([3]; 72 h, 3 days, 0.50 ppm)
25%: % Activity LBF (blow fly larvae (LBF); 50 mg/kg IP, bled 24 hr)
